Patent publication WO2017093157A1, “Piperidine, pyrrolidine and 2-oxo-1,3-oxazinane derivatives as inhibitors of bacterial efflux-pumps for the treatment of microbial infections” (Basilea Pharmaceutica AG, priority 2015, dated 2017)

Tests used:
E. coli ATCC25922 = assay: Antibacterial activity in combination with linezolid, E. coli; type: cell-based; conditions: Escherichia coli, linezolid 128 μg/mL, compound 50 μM, OD625 23 h minus 1 h
P. aeruginosa PAOl = assay: Antibacterial activity in combination with linezolid, P. aeruginosa; type: cell-based; conditions: Pseudomonas aeruginosa, linezolid 128 μg/mL, compound 50 μM, OD625 23 h minus 1 h

| SMILES | residual growth (% of uninhibited control) at 50 µM (E. coli ATCC25922) [%] | residual growth (% of uninhibited control) at 50 µM (P. aeruginosa PAOl) [%] |
| --- | --- | --- |
| NCC1COC(=O)N(Cc2cc(C=O)cc(OCc3ccc(Cl)cc3Br)c2)C1 (centres unmarked) [Example 7, 3-[[5-(aminomethyl)-2-oxo-l,3-oxazinan-3-yl]methyl]-5-[(2-bromo-4-chloro-phenyl)methoxy]benzaldehyde] | ≤ 50 | – |
| C[N+]1(Cc2cc(OCCc3c[nH]cn3)cc(OCc3ccc(Cl)cc3Br)c2)CCC(CN)C1 (stereo not drawn) [Example 23, [l-[[3-[(2-bromo-4-chloro-phenyl)methoxy]-5-[2-(7H-imidazol-4-yl)ethoxy]phenyl]methyl]-l-methyl-pyrrolidin-l-ium-3-yl]methanamine] | – | ≤ 50 |
